Consider eight compounds from patent US11149037B2, “Pyrazole MAGL inhibitors” (H. Lundbeck A/S, priority 2017, dated 2021).

Type in all cases: biochemical
For assay [1], the target named is FAAH (Mus musculus (Mouse), UniProt O08914). Kind of assay: In vitro competitive activity-based protein profiling, mouse proteomes (brain membrane fraction or cell lysates). The following applies: mouse proteome, read-out: FAAH % inh. 1 μM (mouse). The procedure: (§1) In Vitro Competitive Activity-Based Protein Profiling.
Chain of FAAH (Mus musculus (Mouse), UniProt O08914) (O08914 whole entry): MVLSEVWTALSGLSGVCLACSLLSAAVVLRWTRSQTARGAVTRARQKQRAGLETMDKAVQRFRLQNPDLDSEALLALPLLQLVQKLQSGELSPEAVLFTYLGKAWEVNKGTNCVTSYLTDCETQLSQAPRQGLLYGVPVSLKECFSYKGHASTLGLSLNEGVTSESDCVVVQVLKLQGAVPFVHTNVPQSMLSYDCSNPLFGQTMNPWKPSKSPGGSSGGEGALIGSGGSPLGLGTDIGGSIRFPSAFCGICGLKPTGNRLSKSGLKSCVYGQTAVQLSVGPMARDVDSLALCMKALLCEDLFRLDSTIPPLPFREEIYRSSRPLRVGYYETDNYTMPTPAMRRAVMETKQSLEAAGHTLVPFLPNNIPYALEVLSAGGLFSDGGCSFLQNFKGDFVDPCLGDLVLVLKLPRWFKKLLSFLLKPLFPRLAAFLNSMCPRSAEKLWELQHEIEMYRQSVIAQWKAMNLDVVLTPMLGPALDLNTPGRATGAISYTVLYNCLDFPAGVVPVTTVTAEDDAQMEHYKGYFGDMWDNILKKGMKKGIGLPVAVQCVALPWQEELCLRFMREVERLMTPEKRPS
(§2) Proteomes (mouse brain membrane fraction or cell lysates for mouse assays; human prefrontal cortex or PC3 cell membrane fractions for human assays) (50 μL, 1.0 or 2.0 mg/mL total protein concentration) were preincubated with varying concentrations of inhibitors at 37° C. After 30 min, FP-Rh or JW912 or HT-01 (1.0 μL, 50 μM in DMSO) was added and the mixture was incubated for another 30 min at 37° C. Reactions were quenched with SDS loading buffer (15 μL-4×) and run on SDS-PAGE. Following gel imaging, serine hydrolase activity was determined by measuring fluorescent intensity of gel bands corresponding to MAGL and FAAH using ImageJ 1.43u software.

The target in assay [2] is MAGL (Mus musculus (Mouse), UniProt O35678). Described as above. The following applies: mouse proteome, read-out: MAGL % inh. 1 μM (mouse). The procedure:
as §1, §2

Assay [3] deals with FAAH (Homo sapiens (Human), UniProt O00519). The assay can be described thus: In vitro competitive activity-based protein profiling, human proteomes (prefrontal cortex or PC3 cell membrane fractions). The following applies: 1 μM, human proteome; read-out: FAAH % inh. 1 μM (human). The method in brief:
(§3)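 Activity of MAGL and FAAH was quantified from fluorescent gel band intensities. Beforehand, inhibitors at several concentrations competed against subsequent probe labelling (FP-Rh, JW912 or HT-01) in species-matched proteomes, each step 30 min at 37° C.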

The target in assay [4] is MAGL (Homo sapiens (Human), UniProt Q99685). The assay is described as above. The following applies: human proteome; for inhibition at 1 µM: read-out: MAGL % inh. 1 μM (human). The method in brief:
as §3

Chain of MAGL (Homo sapiens (Human), UniProt Q99685) (Q99685 whole entry): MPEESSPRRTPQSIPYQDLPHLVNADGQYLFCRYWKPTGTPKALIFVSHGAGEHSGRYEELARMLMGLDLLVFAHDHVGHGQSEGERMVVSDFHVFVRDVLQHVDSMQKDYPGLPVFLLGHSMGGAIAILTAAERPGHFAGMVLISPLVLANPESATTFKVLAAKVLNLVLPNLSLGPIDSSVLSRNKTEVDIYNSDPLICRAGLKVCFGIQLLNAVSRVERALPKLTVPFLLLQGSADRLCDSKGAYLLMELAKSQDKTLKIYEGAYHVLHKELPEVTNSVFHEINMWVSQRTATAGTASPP
Chain of MAGL (Mus musculus (Mouse), UniProt O35678) (O35678 whole entry): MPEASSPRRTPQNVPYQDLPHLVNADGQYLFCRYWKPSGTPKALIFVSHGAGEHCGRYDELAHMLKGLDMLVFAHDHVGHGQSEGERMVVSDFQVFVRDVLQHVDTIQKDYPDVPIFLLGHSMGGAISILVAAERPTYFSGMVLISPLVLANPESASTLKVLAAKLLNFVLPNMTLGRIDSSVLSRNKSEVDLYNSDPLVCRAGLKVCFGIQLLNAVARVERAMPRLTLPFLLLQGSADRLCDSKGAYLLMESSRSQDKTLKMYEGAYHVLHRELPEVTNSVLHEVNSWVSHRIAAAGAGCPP
Chain of FAAH (Homo sapiens (Human), UniProt O00519) (O00519 whole entry): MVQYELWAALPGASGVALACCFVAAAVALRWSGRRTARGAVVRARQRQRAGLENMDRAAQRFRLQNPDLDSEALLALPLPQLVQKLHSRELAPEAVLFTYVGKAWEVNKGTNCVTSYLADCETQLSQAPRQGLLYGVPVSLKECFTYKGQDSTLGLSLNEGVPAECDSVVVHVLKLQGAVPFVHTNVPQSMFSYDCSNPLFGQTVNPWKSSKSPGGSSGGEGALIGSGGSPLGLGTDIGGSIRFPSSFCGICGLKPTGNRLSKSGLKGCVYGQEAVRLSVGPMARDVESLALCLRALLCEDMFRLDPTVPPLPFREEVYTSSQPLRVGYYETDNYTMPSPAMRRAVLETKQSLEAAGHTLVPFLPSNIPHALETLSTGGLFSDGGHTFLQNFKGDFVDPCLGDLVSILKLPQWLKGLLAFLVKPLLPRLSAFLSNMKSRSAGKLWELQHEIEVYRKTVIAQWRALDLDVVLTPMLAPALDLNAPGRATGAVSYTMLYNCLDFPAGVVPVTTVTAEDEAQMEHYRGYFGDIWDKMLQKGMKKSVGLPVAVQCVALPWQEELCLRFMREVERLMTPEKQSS

For `CS(=O)(=O)Nc1ccn(C(=O)N2CCC3(CCCN3Cc3ccc(C(F)(F)F)cc3NCCCC(=O)O)CC2)n1` [Example 1, 4-((2-((8-(3-(methylsulfonamido)-1H-pyrazole-1-carbonyl)-1,8-diazaspiro[4.5]decan-1-yl)methyl)-5-(trifluoromethyl)phenyl)amino)butanoic acid], the inhibition at 1 µM at FAAH [1], at MAGL [2] and on FAAH [3] was 0 to 25% throughout. The inhibition at 10 µM on MAGL [4] (10 μM, read-out: MAGL % inh. (human) @ 10 μM) was over 75%.

Consider `CN(Cc1ccc(C(F)(F)F)c(N2CCC(F)CC2)c1)C1(C)CCN(C(=O)n2ccc(NS(C)(=O)=O)n2)CC1` [Example 2, N-(1-(4-((3-(4-fluoropiperidin-1-yl)-4-(trifluoromethyl)benzyl)(methyl)amino)-4-methylpiperidine-1-carbonyl)-1H-pyrazol-3-yl)methanesulfonamide], for which the inhibition at 1 µM is 0 to 25% at FAAH [1], over 75% on MAGL [2], 0 to 25% on FAAH [3] and over 75% on MAGL [4].

`CC(=O)Nc1ccn(C(=O)N2CCN(Cc3ccc(Cl)cc3OCC(=O)O)CC2)n1` [Example 3, 2-(2-((4-(3-acetamido-1H-pyrazole-1-carbonyl)piperazin-1-yl)methyl)-5-chlorophenoxy)acetic acid]: the inhibition at 1 µM at FAAH [1] was 0 to 25%; at MAGL [2], over 75%; on FAAH [3] it was 0 to 25%; on MAGL [4], over 75%.

Turning to `CS(=O)(=O)Nc1ccn(C(=O)N2CCC(Oc3ccc(C(F)(F)F)c(-c4nnco4)c3)CC2)n1` [Example 5, N-(1-(4-(3-(1,3,4-Oxadiazol-2-yl)-4-(trifluoromethyl)phenoxy)piperidine-1-carbonyl)-1H-pyrazol-3-yl)methanesulfonamide], the inhibition at 1 µM is 0 to 25% on FAAH [1], over 75% on MAGL [2], 0 to 25% at FAAH [3] and over 75% at MAGL [4].

In the case of `CS(=O)(=O)Nc1ccn(C(=O)N2CCC(Oc3ccc(Cl)c(OC4CCCC4)c3)CC2)n1` [Example 6, N-(1-(4-(4-chloro-3-(cyclopentyloxy)phenoxy)piperidine-1-carbonyl)-1H-pyrazol-3-yl)methanesulfonamide], the inhibition at 1 µM was 0 to 25% at FAAH [1], over 75% on MAGL [2], 0 to 25% at FAAH [3] and over 75% on MAGL [4].

Consider `CS(=O)(=O)Nc1ccn(C(=O)N2CCC(Oc3cccc(C(F)(F)F)c3-c3nnco3)CC2)n1` [Example 7, N-(1-(4-(2-(1,3,4-oxadiazol-2-yl)-3-(trifluoromethyl)phenoxy)piperidine-1-carbonyl)-1H-pyrazol-3-yl)methanesulfonamide], for which the inhibition at 1 µM on FAAH [1] is 0 to 25%; on MAGL [2] it was over 75%; on FAAH [3] it was 0 to 25%; on MAGL [4], over 75%.

Regarding `CS(=O)(=O)Nc1ccn(C(=O)N2CCC(OCc3ccc(N4CCC(F)CC4)c(Cl)c3)CC2)n1` [Example 30, N-(1-(4-((3-chloro-4-(4-fluoropiperidin-1-yl)benzyl)oxy)piperidine-1-carbonyl)-1H-pyrazol-3-yl)methanesulfonamide], the inhibition at 1 µM on FAAH [1], at MAGL [2] and at MAGL [4] was over 75% throughout.

On to `C[C@H]1CN(C(=O)n2ccc(NS(C)(=O)=O)n2)CCN1Cc1cnc(C(F)(F)F)c(N2CCC(F)CC2)c1` [Example 33, (S)—N-(1-(4-((5-(4-fluoropiperidin-1-yl)-6-(trifluoromethyl)pyridin-3-yl)methyl)-3-methylpiperazine-1-carbonyl)-1H-pyrazol-3-yl)methanesulfonamide], for which the inhibition at 1 µM was 0 to 25% at FAAH [1], over 75% on MAGL [2] and over 75% on MAGL [4].
